12 compounds from ChEMBL document CHEMBL1201862, “PubChem BioAssay data set” (2004) can be followed below.

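Dose response: 5 concentrations. Exposure: 48 h. Format: 96-well plates. Endpoint: linear interpolation; highest concentration if not reached. The concentration for 50% growth inhibition is given as GI50.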 Activity calls are given as the source filed them. Cut-off read from the data, not from the text of the source: active = GI50 up to about 1.1 µM and inactive = higher.

Among the test systems are COLO 205; HCT-116; SN12C; NCI/ADR-RES; T47D; MDA-N; A498; KM12; LOX IMVI; NCI-H226; UACC-257; IGROV-1; HOP-92; OVCAR-5; MCF7; SW-620; ACHN; SNB-75.
Holding throughout (assay): inhibition of tumour cell growth, NCI panel, 48 h

On to `COc1ccc([C@@]23Oc4cc(OC)cc(OC)c4[C@]2(O)[C@H](O)[C@H](C(N)=O)[C@H]3c2ccccc2)cc1` [DIDESMETHYLROCAGLAMIDE], for which the GI50 is < 0.01 µM (active) in the experiment on COLO 205; < 0.01 µM (active) in the experiment on HCT-116; < 0.01 µM (active) in the experiment on SN12C; 0.0656 µM (active) with NCI/ADR-RES; < 0.01 µM (active) in the experiment with T47D; < 0.01 µM (active) in the experiment on MDA-N. Further, the GI50 with A498 was < 0.01 µM (active); in the experiment on KM12, < 0.01 µM (active); in the experiment with LOX IMVI it was < 0.01 µM (active); in the experiment with NCI-H226, < 0.01 µM (active); with UACC-257, < 0.0162 µM (active); with IGROV-1, < 0.01 µM (active). Further, the GI50 is < 0.01 µM (active) in the experiment on HOP-92; 0.0102 µM (active) in the experiment on OVCAR-5; < 0.01 µM (active) in the experiment on MCF7; < 0.01 µM (active) with SW-620; < 0.01 µM (active) with ACHN.

As for `O=c1[nH]nc(Cc2ccc(Cl)cc2)n1O`, the GI50 with COLO 205, with HCT-116, in the experiment with SN12C, with NCI/ADR-RES, in the experiment on T47D and in the experiment with MDA-N was > 100 µM (inactive) throughout. Further, the GI50 in the experiment with A498, in the experiment with KM12, with LOX IMVI, in the experiment on NCI-H226, with UACC-257 and in the experiment with IGROV-1 was > 100 µM (inactive) each time. The GI50 with HOP-92, in the experiment on OVCAR-5, with MCF7, in the experiment with SW-620 and in the experiment on ACHN was > 100 µM (inactive) each time.

For `OC[C@]1(n2nc3ccccc3n2)OC[C@@H]1c1ccccc1`, the GI50 in the experiment with COLO 205 is 55.5 µM (inactive); in the experiment with HCT-116, 30.4 µM (inactive); in the experiment on SN12C, 43.1 µM (inactive); in the experiment on NCI/ADR-RES, 57.3 µM (inactive); with T47D, 36 µM (inactive); with MDA-N, 53.7 µM (inactive). For the same compound, the GI50 was 60.5 µM (inactive) with A498; 45.6 µM (inactive) in the experiment with KM12; 42.5 µM (inactive) in the experiment with LOX IMVI; 32.2 µM (inactive) in the experiment with NCI-H226; 93.8 µM (inactive) with UACC-257; 37.2 µM (inactive) in the experiment with IGROV-1. For the same compound, the GI50 in the experiment on HOP-92 is 44.6 µM (inactive); in the experiment on OVCAR-5, 91.4 µM (inactive); in the experiment with MCF7, 33.7 µM (inactive); in the experiment with ACHN it was 36.6 µM (inactive).

Turning to `C=CCSC1=N/C(=C\c2ccc(C)cc2)C(=O)N1CC=C`, the GI50 is 20.6 µM (inactive) with COLO 205; 18.4 µM (inactive) in the experiment on HCT-116; 12.7 µM (inactive) in the experiment on SN12C; 40.5 µM (inactive) in the experiment on NCI/ADR-RES; 25.9 µM (inactive) with T47D; 18.6 µM (inactive) with MDA-N. Further, the GI50 in the experiment with A498 was 13.6 µM (inactive); with KM12, 23.7 µM (inactive); in the experiment on LOX IMVI it was 26.5 µM (inactive); with UACC-257, 25.6 µM (inactive); with IGROV-1, 44.2 µM (inactive); in the experiment with HOP-92, 11.7 µM (inactive). Also, the GI50 was 25.4 µM (inactive) with OVCAR-5, 20.9 µM (inactive) in the experiment on MCF7, 32.4 µM (inactive) in the experiment with SW-620 and 36.1 µM (inactive) in the experiment on ACHN.

In the case of `CCOC(=O)c1cc(C2=CCNC2=O)c(-c2cc(C)no2)[nH]1`, the GI50 was 54.8 µM (inactive) in the experiment on COLO 205; 31.1 µM (inactive) with HCT-116; > 100 µM (inactive) in the experiment on SN12C; 30.5 µM (inactive) with NCI/ADR-RES; 30.8 µM (inactive) with T47D; 94.6 µM (inactive) with MDA-N. Moreover, the GI50 with A498 was > 100 µM (inactive); with KM12, 59.8 µM (inactive); in the experiment with LOX IMVI, 86.5 µM (inactive); in the experiment on NCI-H226, > 100 µM (inactive); with UACC-257, > 100 µM (inactive); in the experiment on IGROV-1, 75.3 µM (inactive). For the same compound, the GI50 in the experiment on OVCAR-5 was > 100 µM (inactive); in the experiment with MCF7, 70 µM (inactive); in the experiment on SW-620 it was 80.2 µM (inactive); in the experiment with SNB-75 it was 34 µM (inactive); in the experiment on ACHN, 52.1 µM (inactive).

Turning to `Cc1ccc(S[C@@H](C)[C@@](O)(C(N)=O)c2ccccc2)cc1`, the GI50 in the experiment with COLO 205 was 34.4 µM (inactive); in the experiment with HCT-116, 35.2 µM (inactive); in the experiment with SN12C, > 100 µM (inactive); with NCI/ADR-RES, 19.9 µM (inactive); in the experiment on T47D, 26.7 µM (inactive); in the experiment with MDA-N, 33.8 µM (inactive). Moreover, the GI50 in the experiment with KM12 is 40.8 µM (inactive); in the experiment on LOX IMVI, 14.7 µM (inactive); in the experiment on NCI-H226, 64.4 µM (inactive); in the experiment with UACC-257, 13 µM (inactive); in the experiment with IGROV-1 it was 3.74 µM (inactive); in the experiment on HOP-92, 18.7 µM (inactive). Also, the GI50 with OVCAR-5 is > 100 µM (inactive); in the experiment on MCF7, 44.8 µM (inactive); in the experiment with SW-620 it was 39 µM (inactive); in the experiment with SNB-75, > 100 µM (inactive); with ACHN, 68.5 µM (inactive).

As for `Cc1cc(C)n(CN(Cn2nc(C)cc2C)c2ccc(N(Cn3nc(C)cc3C)Cn3nc(C)cc3C)cc2)n1`, the GI50 in the experiment on COLO 205 is 17.7 µM (inactive); in the experiment with HCT-116 it was 17.5 µM (inactive); with SN12C, 27.4 µM (inactive); in the experiment on NCI/ADR-RES, 19.1 µM (inactive); in the experiment with T47D, 23.8 µM (inactive); in the experiment with MDA-N, 18.9 µM (inactive). In addition, the GI50 with A498 was 22.2 µM (inactive); in the experiment with KM12, 24.2 µM (inactive); in the experiment with UACC-257 it was 18.6 µM (inactive); with IGROV-1, 31.6 µM (inactive); in the experiment with HOP-92, 23.9 µM (inactive); in the experiment on OVCAR-5, 24.7 µM (inactive). Also, the GI50 in the experiment with MCF7 is 20.3 µM (inactive); with SW-620, 16.6 µM (inactive); in the experiment with ACHN, 17.3 µM (inactive).

As to `[O-]c1c[n+](CCCC[n+]2cc([O-])on2)no1`, the GI50 with COLO 205, with HCT-116, with SN12C, in the experiment on NCI/ADR-RES, with T47D and in the experiment on MDA-N was > 100 µM (inactive) throughout. Besides, the GI50 in the experiment with A498, in the experiment with KM12, with LOX IMVI, in the experiment on UACC-257, with IGROV-1 and with HOP-92 was > 100 µM (inactive) throughout. The GI50 in the experiment on OVCAR-5, in the experiment on MCF7, in the experiment with SW-620, with SNB-75 and with ACHN was > 100 µM (inactive) each time.

On to `COC(=O)CCCCC/C(=C\C(=O)C(Cl)(Cl)Cl)OC`, for which the GI50 with COLO 205 is 26.5 µM (inactive); in the experiment on HCT-116 it was 20.2 µM (inactive); in the experiment with SN12C, 33.5 µM (inactive); with NCI/ADR-RES it was 30.5 µM (inactive); in the experiment with T47D, 28.5 µM (inactive); in the experiment on MDA-N, 24 µM (inactive). The GI50 with A498 is 40.8 µM (inactive); in the experiment on KM12, 26.4 µM (inactive); with LOX IMVI, 20.9 µM (inactive); in the experiment on UACC-257, 21.8 µM (inactive); with IGROV-1, 12.7 µM (inactive); with HOP-92 it was 26.1 µM (inactive). The GI50 is > 100 µM (inactive) in the experiment with OVCAR-5; 23.3 µM (inactive) in the experiment on MCF7; 31.7 µM (inactive) in the experiment on SW-620; 21.4 µM (inactive) in the experiment with SNB-75; 39.7 µM (inactive) in the experiment on ACHN.

With `Nc1ccc2nc3ccc(=O)cc-3n(-c3ccccc3)c2c1`, the GI50 in the experiment on COLO 205 is 41 µM (inactive); in the experiment on HCT-116, 34.4 µM (inactive); in the experiment on SN12C, > 100 µM (inactive); in the experiment on NCI/ADR-RES it was > 100 µM (inactive); with T47D, > 100 µM (inactive); with MDA-N, > 100 µM (inactive). Also, the GI50 in the experiment on A498 was 32.8 µM (inactive); in the experiment with KM12, 7.18 µM (inactive); with NCI-H226 it was 67.9 µM (inactive); in the experiment on IGROV-1, 45.5 µM (inactive); with HOP-92, > 100 µM (inactive); in the experiment on OVCAR-5, > 100 µM (inactive). The GI50 is 93.3 µM (inactive) in the experiment with MCF7, > 100 µM (inactive) in the experiment on SW-620, 28.2 µM (inactive) in the experiment on SNB-75 and > 100 µM (inactive) in the experiment with ACHN.

For the compound `COC(=O)c1cc(C(=CCC[C@H]2CC[C@@]3(C)C(CCC4C3CC[C@@]3(C)C4CC[C@@H]3C(C)CCCC(C)C)C2)c2cc(Cl)c(O)c(C(=O)OC)c2)cc(Cl)c1O` (stereo partly drawn), the GI50 in the experiment with COLO 205, in the experiment with HCT-116, in the experiment with SN12C, in the experiment on NCI/ADR-RES, with T47D and with MDA-N was > 10 µM (inactive) throughout. The GI50 in the experiment with KM12, in the experiment on LOX IMVI, in the experiment on NCI-H226, in the experiment on UACC-257, in the experiment on IGROV-1 and with HOP-92 was > 10 µM (inactive) throughout. Besides, the GI50 with OVCAR-5, with MCF7, in the experiment with SW-620, in the experiment on SNB-75 and in the experiment on ACHN was > 10 µM (inactive) each time.

In the case of `Cc1ncc(CO)c(CN)c1O`, the GI50 with COLO 205, in the experiment with HCT-116, in the experiment with SN12C, in the experiment with NCI/ADR-RES, in the experiment on T47D and in the experiment with MDA-N was > 100 µM (inactive) each time. The GI50 in the experiment on A498, in the experiment with KM12, in the experiment with LOX IMVI, in the experiment with NCI-H226, with UACC-257 and in the experiment with IGROV-1 was > 100 µM (inactive) throughout. For the same compound, the GI50 in the experiment on OVCAR-5, in the experiment on MCF7, in the experiment with SW-620 and with ACHN was > 100 µM (inactive) throughout.
